According to US6844354B1, “Agent for prophylaxis and treatment of interstitial pneumonia and pulmonary fibrosis” (Mitsubishi Pharma Corporation, priority 1999, dated 2005):
Marks after values point to notes of the source that are not given here. Values belong to the compound of their own block, whether it stands above or below them.

What was measured:
[1] = test system: mouse neutrophil; assay: Cell chemotaxis (Boyden chamber), mouse neutrophil; format: cell-based; settings: 1.5 h, neutrophils, migration by IL-1. (5 ng/ml), 37° C. 90 min, n=6, mean±SEM, read-out: IC50 of suppression of migration
Experimental: (§1) Mouse alveolar macrophage-derived cell line (MH-S cell), fibroblast (NIH3T3 cell) and mouse neutrophil were used. Casein was intraperitoneally administered to the mouse and the mouse neutrophil was isolated from ascites thereof after 6 h. The cell chemotaxis was measured by a Boyden chamber (chemotaxicell, KURABO, Japan). The pore size of the filter used was 5 μm for MH-S cell and neutrophil, and 8 μm for NIH3T3 cell. As a chemotactic factor, lipopolysaccharide (LPS, E.coli: B-4, Sigma, St Louis, Mo., USA) was used for MH-S cell, mouse interleukin 1β (IL-1β, Genzyme/techne, USA) was used for neutrophil, and a […] (PDGF-BB, UBI, Lake Placid, USA) was used for NIH3T3 cell. The chemotactic factors were added to a lower layer and Y-27632 were added to a higher layer at various concentrations. The reaction was carried out at 37° C. for 120 min for MH-S cell and NIH3T3 cell and 37° C. for 90 min for neutrophil. After the completion of the reaction, migrated cells were stained with Giemsa (Muto, CO., Ltd, Japan) and the cells were counted. The value is in mean±SEM.

[2] = test system: Mouse alveolar macrophage-derived cell line (MH-S cell); assay: Cell chemotaxis (Boyden chamber), MH-S cell; format: cell-based; settings: 2 h, MH-S cells, migration by LPS (1 μg/ml), 37° C. 120 min, n=6, mean±SEM, read-out: IC50 of suppression of migration
Experimental: as §1

[3] = test system: bleomycin-induced interstitial pneumonia (pulmonary fibrosis) model; assay: Number of inflammatory cells in bronchoalveolar lavage fluid (BALF) in bleomycin-induced model; format: in vivo, mouse
Experimental: (§2) Female C57BL/6 mice (about 15 g, 6-week-old) in 4 mice per group (n=4) were intraperitoneally administered with bleomycin 5 times a day every other day (total dose: 200 mg/kg) to prepare a model with bleomycin-induced interstitial pneumonia (pulmonary fibrosis).
Using the pulmonary fibrosis model administered with bleomycin as in Experimental Example 1, the effect of Y-27632 on the number of various inflammatory cells in BALF was examined.
The dose of Y-27632 was administered every other day at the lo dose of 100 μg/kg in the same manner as in Experimental Example 2. BALF was recovered at day 7, day 14, day 21 and day 40 from the start of the bleomycin administration, and the number of total cells, macrophages, lymphocytes and neutrophils was counted (n=5). The number of total cells was measured by a hemocytometer. Smear preparations of the various cells in BALF were prepared by cytospin (Auto Smer CF-12D, Chiyoda seisakusho, Tokyo, Japan), stained with May-Gruenwald and subjected to the counting under a microscope.
The results are shown in mean±SEM (n=5). For the test, (Satical analysis was performed One-way ANOVA test followed by Fisher's least significance test) was performed (*p<0.05; BLM group vs Y-27632 group) (§p<0.05; BLM group vs Normal group) (+p<0.05; Y-27632 group vs Normal group).

[4] = test system: bleomycin-induced interstitial pneumonia (pulmonary fibrosis) model; assay: Pulmonary fibrosis level by tissue staining (Aschcroft score) in bleomycin-induced model; format: in vivo, mouse; settings: day 40
Experimental: as §2
(§3) Using the bleomycin-induced interstitial pneumonia (pulmonary fibrosis) model prepared in Experimental Example 1, the effect of the present invention on induced interstitial pneumonia (pulmonary fibrosis) was examined.
(§4) Y-27632 was intraperitoneally administered immediately before bleomycin administration from the first day of bleomycin administration (0th) to day 8 (5th administration), and thereafter until day 40, by way of a single, alternate-day administration. At day 40, the level of fibrosis was checked by hydroxyproline content and tissue staining. The hydroxyproline content was measured according to the report of Tran et al. (Tran et al., J. Clin. Invest., 99: 608-617, 1997). The degree of fibrosis by tissue staining was evaluated by the Aschcroft score (Aschcroft et al., J. Clin. Pathol., 41: 467-70, 1988).
Y-27632 suppressed the increase of Aschcroft score due to bleomycin administration at the dose of not less than 10 μg/kg (Table 2). In the Table, *:p<0.05, **:p<0.01.

[5] = test system: fibroblast (NIH3T3 cell); assay: Cell chemotaxis (Boyden chamber), NIH3T3 cell; format: cell-based; settings: Mus musculus, 2 h; NIH3T3 cells, migration by PDGF-BB (10 ng/ml), 37° C. 120 min, n=6, mean±SEM; read-out: IC50 of suppression of migration
Experimental: as §1

[6] = test system: bleomycin-induced interstitial pneumonia (pulmonary fibrosis) model; assay: Hydroxyproline content in bleomycin-induced interstitial pneumonia (pulmonary fibrosis) model; format: in vivo, mouse; settings: day 40
Experimental: as §2, §3, §4
The suppression percentage was calculated based on the bleomycin alone administration group as 0% suppression, and the physiological saline administration group as 100% suppression.

[7] = test system: ROCK-II gene; assay: Expression of ROCK-II gene in the lung, real time quantitative RT-PCR; format: in vivo, mouse
Experimental: as §2
The expression of ROCK-II gene in the lung at 7, 14, 21 and 40 days after the start of the bleomycin administration was measured, and so was the value of an animal free of bleomycin administration. The amount of the expression of the ROCK-II gene was measured according to a real time quantitative RT-PCR method. As the primer, the following sequence was used [forward: CATGGTGCATTGCGACACA (SEQ ID No. 1), reverse: […] (SEQ ID No. 2)]. The amount of expression of the ROCK-II gene was expressed relatively in [(Rock-II m RNA)/(GAPDH m RNA)] using the expression amount of GAPDH (glyceraldehyde-3-phosphate dehydrogenase) gene as a standard. The results are shown in mean±SEM (n=4). For the test, (Satical analysis was performed One-way ANOVA test followed by Fisher's least significance test) was performed.

[8] = Y-27632 100 μg/kg every other day vs BLM group, days 7-40
[9] = Y-27632 alone 1000 μg/kg (no bleomycin)

IC50 [1]: 8.4 ± 2.1 µM
IC50 [2]: 4.8 ± 2 µM
Compound: C[C@@H](N)[C@H]1CC[C@H](C(=O)Nc2ccncc2)CC1 [Y-27632, (+)-trans-4-(1-aminoethyl)-1-(4-pyridylcarbamoyl)cyclohexane 2HCl.1H2O]
Number of macrophages in BALF [3, 8]: significantly lower results than BLM group
Number of neutrophils in BALF [3, 8]: significantly lower results than BLM group
Number of total cells in BALF [3, 8]: significantly lower results than BLM group
Lymphocyte counts in BALF ([3]; Y-27632 100 μg/kg every other day, BLM, Y-27632 and Normal groups): did not show a significant difference among 3 groups
Aschcroft score (mean ± standard error) [4, 9]: 1.33 ± 0.21
Aschcroft score (mean ± standard error) ([4]; bleomycin + Y-27632 0.1 μg/kg): 2.79 ± 0.26
Aschcroft score (mean ± standard error) ([4]; bleomycin + Y-27632 10 μg/kg, p<0.01): 1.85 ± 0.26**
Aschcroft score (mean ± standard error) ([4]; bleomycin + Y-27632 100 μg/kg, p<0.05): 1.98 ± 0.41*
Dose suppressing the increase of Aschcroft score due to bleomycin administration [4]: not less than 10 μg/kg
IC50 [5]: 1.6 ± 0.5 µM
Suppression (%) of the increase of hydroxyproline content [6, 9]: 92.1%
Suppression (%) of the increase of hydroxyproline content ([6]; bleomycin + Y-27632 0.01 μg/kg i.p. alternate-day): −10.6%
Suppression (%) of the increase of hydroxyproline content ([6]; bleomycin + Y-27632 0.1 μg/kg i.p. alternate-day): 28.2%
Suppression (%) of the increase of hydroxyproline content ([6]; bleomycin + Y-27632 1 μg/kg i.p. alternate-day): 30.0%
Suppression (%) of the increase of hydroxyproline content ([6]; bleomycin + Y-27632 10 μg/kg i.p. alternate-day): 38.6%
Suppression (%) of the increase of hydroxyproline content ([6]; bleomycin + Y-27632 100 μg/kg i.p. alternate-day): 53.8%
Effect on the increase of hydroxyproline content due to bleomycin administration ([6]; i.p. alternate-day): dose-dependently suppressed

Compound: bleomycin
Expression amount of ROCK-II gene (ROCK-II mRNA/GAPDH mRNA) vs bleomycin non-administration group ([7]; day 7 and day 21, bleomycin total dose 200 mg/kg i.p.): significantly high
Increase of expression amount of ROCK-II gene relative to bleomycin non-administration group ([7]; day 21, bleomycin total dose 200 mg/kg i.p.): about 9 times
Aschcroft score (mean ± standard error) ([4]; bleomycin alone (total dose 200 mg/kg i.p.)): 3.54 ± 0.43
